These results are taken from patent US20070270475A1, “4-Methoxy-Pyrrolidine-2-Carboxylic Acid Compounds and Derivatives Thereof as Hepatitis C Virus Inhibitors” (priority 2004, published 2007).

In this test the target is T1, HCV RNA Polymerase, recombinant NS5B with C-terminal 21 amino acid deletion, genotype 1a (strain H77) (Hepatitis C virus genotype 1a, UniProt P27958).
T1 construct: fused on or other part: C-terminal 6His-tag
The experiment in a line: In vitro HCV RNA-dependent RNA polymerase inhibition assay, genotype 1a C-terminally truncated (delta21) enzyme. It counts as biochemical, HCV genotype 1a. The conditions noted are these: genotype 1a NS5B delta21, 25 nM enzyme; read-out: IC50 in delta-21 1a enzyme inhibition assay. The source says: In Vitro Detection of inhibitors of HCV RNA-Dependent RNA Polymerase Activity
Incorporation of [^33P]-GMP into RNA was followed by absorption of the biotin labelled RNA polymer by streptavidin containing SPA beads. A synthetic template consisting of biotinylated 13mer-oligoG hybridised to polyrC was used as a homopolymer substrate.
a) Genotype 1a C-Terminally Truncated (delta21) Enzyme
HCV RNA Polymerase [Recombinant NS5B with C-terminal 21 amino acid deletion and C-terminal 6His-tag (Ferrari et al. J. Virol. 73(2), 1999, 1649. ‘Characterization of soluble hepatitis C virus RNA-dependent RNA polymerase expressed in Escherichia coli.’) expressed in E. coli and purified to homogeneity] was added to 25 nM final concentration. Polymerase of genotype la was from strain H77 (Yanagi, M., Purcell, R. H., Emerson, S. U. & Bukh, J. (1997), Proceedings of the National Academy of Sciences, USA 94, 8738-8743) containing a sequence change from valine to isoleucine at position 180.
Reaction Conditions were 25 nM enzyme, 1.5 μg/ml oligo-rG13/poly-rC and 0.2 μCi α-^33P-GTP in 0.5 μM GTP (20 Ci/mMol) , 20 mM Tris pH 7.5, 23 mM NaCl, 3 mM DTT, 5 mM MgCl2, 1 mM MnCl2.
Enzyme was diluted to 500 nM concentration in 20 mM Tris-HCl, pH 7.5, 25 mM NaCl and 3 mM DTT.
4× concentrated assay buffer mix was prepared using 1M Tris-HCl, pH7.5 (1 mL), 5M NaCl (0.25 mL), 1M DTT (0.12 mL) and Water (8.63 mL), Total 10 mL.
2× concentrated first reagent was prepared using 4× concentrated assay buffer mix (5 μL), 40 μ/μL RNasin (0.1 μL), 20 μg/mL polyrC/biotinylated-oligorG (1.6 μL), 500 nM enzyme (1 μL ) and Water (2.3 μL), Total 10 μL/well.
2× concentrated second reagent was prepared using 1 M MgCl2 ([…]), 1M MnCl2 (0.02 μL), 25 μM GTP (0.4 μL), α-[^33P]-GTP (10 μCi/μL, 0.02 μL) and water (9.5 μL), Total 10 μL/well.
The assay was set up using compound (1 μL in 100% DMSO), first reagent (10 μL), and second reagent (10 μL), Total 21 μL.
The reaction was performed in a U-bottomed, white, 96-well plate. The reaction was mixed on a plate-shaker, after addition of the Enzyme, and incubated for 1 h at 22° C. After this time, the reaction was stopped by addition of 60 μL 1.5 mg/ml streptavidin SPA beads (Amersham) in 0.1 M EDTA in PBS. The beads were incubated with the reaction mixture for 1 h at 22° C. after which 100 μL 0.1 M EDTA in PBS was added. The plate was sealed, mixed centrifuged and incorporated radioactivity determined by counting in a Trilux (Wallac) or Topcount (Packard) Scintillation Counter.
After subtraction of background levels without enzyme, any reduction in the amount of radioactivity incorporated in the presence of a compound, compared to that in the absence, was taken as a measure of the level of inhibition. Ten concentrations of compounds were tested in three- or fivefold dilutions. From the counts per minute, percentage of inhibition at highest concentration tested or IC50s for the compounds were calculated using GraFit 3, GraFit 4 or GraFit 5 (Erithacus Software Ltd.) software packages or a data evaluation macro for Excel based on XLFit software (IDBS).

T1 sequence (P27958 2601-2990 limits assumed, stated change not applied): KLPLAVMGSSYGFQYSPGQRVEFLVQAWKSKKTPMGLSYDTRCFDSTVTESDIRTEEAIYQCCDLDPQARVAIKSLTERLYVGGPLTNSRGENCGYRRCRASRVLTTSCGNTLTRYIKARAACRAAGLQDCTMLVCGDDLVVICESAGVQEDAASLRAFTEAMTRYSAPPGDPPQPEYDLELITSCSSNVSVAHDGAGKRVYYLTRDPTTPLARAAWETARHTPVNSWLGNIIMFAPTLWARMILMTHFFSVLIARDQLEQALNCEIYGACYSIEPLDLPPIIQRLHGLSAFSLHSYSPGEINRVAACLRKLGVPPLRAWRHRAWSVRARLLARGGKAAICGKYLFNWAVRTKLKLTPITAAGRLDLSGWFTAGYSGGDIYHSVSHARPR

As for `COC[C@H]1C[C@@](Cc2cscn2)(C(=O)O)N(C(=O)c2ccc(C(C)(C)C)c(OC)c2)[C@H]1c1nccs1` (racemic) [Example 3, rel-(2R,4S,5R)-1-(3-Methoxy-4-tert-butylbenzoyl)-4-(methoxymethyl)-5-(1,3-thiazol-2-yl)-2-(1,3-thiazol-4-ylmethyl)pyrrolidine-2-carboxylic acid], the IC50 is less than 750 nM.

Consider `COC[C@H]1C[C@@](CC(C)C)(C(=O)O)N(C(=O)c2ccc(C(C)(C)C)c(OC)c2)[C@H]1c1ncc(C)s1` (racemic) [Compound C, rel-(2S,4S,5R)-2-isobutyl-1-(3-methoxy-4-tert-butylbenzoyl)-4-methoxymethyl-5-(5-methyl-1,3-thiazol-2-yl)pyrrolidine-2-carboxylic acid, reference compound], for which the IC50 was more than 1000 nM. To `COC[C@H]1C[C@@](CC(C)C)(C(=O)O)N(C(=O)c2ccc(C(C)(C)C)c(OC)c2)[C@H]1c1nccs1` (racemic) [Compound A, rel-(2S,4S,5R)-2-isobutyl-1-(3-methoxy-4-tert-butylbenzoyl)-4-methoxymethyl-5-(1,3-thiazol-2-yl)pyrrolidine-2-carboxylic acid, reference compound] belongs more than 1000 nM; to `COC[C@H]1C[C@@](Cc2cscn2)(C(=O)O)N(C(=O)c2ccc(C(C)(C)C)c(OC)c2)[C@H]1c1ncc(C)s1` (racemic) [Example 1, rel-(2R,4S,5R)-1-(3-Methoxy-4-tert-butylbenzoyl)-4-(methoxymethyl)-5-(5-methyl-1,3-thiazol-2-yl)-2-(1,3-thiazol-4-ylmethyl)pyrrolidine-2-carboxylic acid], less than 750 nM; to `COC[C@H]1C[C@@](Cc2ccccc2)(C(=O)O)N(C(=O)c2ccc(C(C)(C)C)c(OC)c2)[C@H]1c1nccs1` (racemic) [Compound E, rel-(2R,4S,5R)-2-benzyl-1-(3-methoxy-4-tert-butylbenzoyl)-4-methoxymethyl-5-(1,3-thiazol-2-yl)-pyrrolidine-2-carboxylic acid, reference compound], more than 1000 nM.

Consider `COC[C@H]1C[C@@](Cn2cccn2)(C(=O)O)N(C(=O)c2ccc(C(C)(C)C)c(OC)c2)[C@H]1c1nccs1` (racemic) [Example 6, rel-(2R,4S,5R)-1-(3-Methoxy-4-tert-butylbenzoyl)-4-(methoxymethyl)-2-(1H-pyrazol-1-ylmethyl)-5-(1,3-thiazol-2-yl)pyrrolidine-2-carboxylic acid], for which the IC50 was less than 750 nM.

On to `COC[C@H]1C[C@@](Cn2cccn2)(C(=O)O)N(C(=O)c2ccc(C(C)(C)C)c(OC)c2)[C@H]1c1ncc(C)s1` (single isomer, unassigned; enantiomer a) [Example 11], for which the IC50 was less than 750 nM. To `COC[C@H]1C[C@@](Cc2cscn2)(C(=O)O)N(C(=O)c2ccc(C(C)(C)C)c(OC)c2)[C@H]1c1ncc(C)s1` (single isomer, unassigned; enantiomer a) [Example 2] belongs less than 750 nM.

Regarding `COC[C@H]1C[C@@](Cc2cscn2)(C(=O)O)N(C(=O)c2ccc(C(C)(C)C)c(OC)c2)[C@H]1c1nccs1` (single isomer, unassigned; enantiomer a) [Example 12], the IC50 was less than 750 nM. To `COC[C@H]1C[C@@](Cc2ccsn2)(C(=O)O)N(C(=O)c2ccc(C(C)(C)C)c(OC)c2)[C@H]1c1nccs1` (racemic) [Example 4, rel-(2R,4S,5R)-1-(3-Methoxy-4-tert-butylbenzoyl)-4-(methoxymethyl)-5-(1,3-thiazol-2-yl)-2-(1,2-thiazol-3-ylmethyl)pyrrolidine-2-carboxylic acid] belongs less than 750 nM; to `COC[C@H]1C[C@@](Cc2ccsn2)(C(=O)O)N(C(=O)c2ccc(C(C)(C)C)c(OC)c2)[C@H]1c1nccs1` (single isomer, unassigned; enantiomer a) [Example 5], less than 750 nM; to `COCC1CC(CC(C)C)(C(=O)O)N(C(=O)c2ccc(C(C)(C)C)c(OC)c2)C1c1ncc(C)s1` (single isomer, unassigned; enantiomer a) [Compound D, reference compound], 750 to 1000 nM. Consider `COC[C@H]1C[C@@](Cc2nccs2)(C(=O)O)N(C(=O)c2ccc(C(C)(C)C)c(OC)c2)[C@H]1c1ncc(C)s1` (racemic) [Example 8, rel-(2R,4S,5R)-1-(3-Methoxy-4-tert-butylbenzoyl)-4-(methoxymethyl)-5-(5-methyl-1,3-thiazol-2-yl)-2-(1,3-thiazol-2-ylmethyl)pyrrolidine-2-carboxylic acid], for which the IC50 was less than 750 nM. For `COC[C@H]1C[C@@](Cn2cccn2)(C(=O)O)N(C(=O)c2ccc(C(C)(C)C)c(OC)c2)[C@H]1c1ncc(C)s1` (racemic) [Example 10, rel-(2R,4S,5R)-1-(3-Methoxy-4-tert-butylbenzoyl)-4-(methoxymethyl)-5-(5-methyl-1,3-thiazol-2-yl)-2-(1H-pyrazol-1-ylmethyl)pyrrolidine-2-carboxylic acid], the IC50 was less than 750 nM.

On to `COC[C@H]1C[C@@](Cc2ccsn2)(C(=O)O)N(C(=O)c2ccc(C(C)(C)C)c(OC)c2)[C@H]1c1ncc(C)s1` (racemic) [Example 9, rel-(2R,4S,5R)-1-(3-Methoxy-4-tert-butylbenzoyl)-4-(methoxymethyl)-5-(5-methyl-1,3-thiazol-2-yl)-2-(1,2-thiazol-3-ylmethyl)pyrrolidine-2-carboxylic acid], for which the IC50 is less than 750 nM.

With `COC[C@H]1C[C@@](CC(C)C)(C(=O)O)N(C(=O)c2ccc(C(C)(C)C)c(OC)c2)[C@H]1c1nccs1` [Compound B, (2S,4S,5R)-2-isobutyl-1-(3-methoxy-4-tert-butylbenzoyl)-4-methoxymethyl-5-(1,3-thiazol-2-yl)pyrrolidine-2-carboxylic acid, reference compound], the IC50 was more than 1000 nM.

As to `COC[C@H]1C[C@@](Cn2cccn2)(C(=O)O)N(C(=O)c2ccc(C(C)(C)C)c(OC)c2)[C@H]1c1nccs1` (single isomer, unassigned) [Example 7], the IC50 was less than 750 nM.
